In BindingDB's records for patent US10836741 (Valo Early Discovery, Inc., 2020):

Target: T1, Ubiquitin carboxyl-terminal hydrolase 7 [208-1102] (Human, UniProt Q93009)
T1 construct: 208-1102
Test: USP7 Assay A (Ubitquin-Rhodamine 110 Assay)
Description: Each assay was performed in a final volume of 15 μL in assay buffer containing 20 mM Tris-HCl (pH 8.0, (1M Tris-HCl, pH 8.0 solution; Corning 46-031-CM)), 1 mM GSH (L-Glutathione reduced; Sigma # G4251), 0.03% BGG (0.22 μM filtered, Sigma, # G7516-25G), and 0.01% Triton X-100 (Sigma, # T9284-10L). Nanoliter quantities of either an 8-point or 10-point, 3-fold serial dilution in DMSO was pre-dispensed into assay plates (Perkin Elmer, ProxiPlate-384 F Plus, #6008269) for a final test concentration range of either 25 μM to 11 nM or 25 μM to 1.3 nM, respectively. The final concentration of the enzyme (USP7, construct USP7 (208-1102) 6*His, Viva Biotech) in the assay was 62.5 pM. Final substrate (Ub-Rh110; Ubiquitin-Rhodamine 110, R&D Systems # U-555) concentration was 25 nM with [Ub-Rh110]<<Km. 5 μL of 2× enzyme was added to assay plates (pre-stamped with compound) preincubated with USP7 for 30 min and then 5 μL of 2×Ub-Rh110 was added to assay plates. Plates were incubated stacked for 20 min at room temperature before 5 μL of stop solution (final concentration of 10 mM citric acid in assay buffer (Sigma, #251275-500G)). Fluorescence was read on the Envision (Excitation at 485 nm and Emission at 535 nm; Perkin Elmer) or on the PheraSTAR (Excitation at 485 nm and Emission at 535 nm; BMG Labtech).

T1 sequence (Q93009 208-1102): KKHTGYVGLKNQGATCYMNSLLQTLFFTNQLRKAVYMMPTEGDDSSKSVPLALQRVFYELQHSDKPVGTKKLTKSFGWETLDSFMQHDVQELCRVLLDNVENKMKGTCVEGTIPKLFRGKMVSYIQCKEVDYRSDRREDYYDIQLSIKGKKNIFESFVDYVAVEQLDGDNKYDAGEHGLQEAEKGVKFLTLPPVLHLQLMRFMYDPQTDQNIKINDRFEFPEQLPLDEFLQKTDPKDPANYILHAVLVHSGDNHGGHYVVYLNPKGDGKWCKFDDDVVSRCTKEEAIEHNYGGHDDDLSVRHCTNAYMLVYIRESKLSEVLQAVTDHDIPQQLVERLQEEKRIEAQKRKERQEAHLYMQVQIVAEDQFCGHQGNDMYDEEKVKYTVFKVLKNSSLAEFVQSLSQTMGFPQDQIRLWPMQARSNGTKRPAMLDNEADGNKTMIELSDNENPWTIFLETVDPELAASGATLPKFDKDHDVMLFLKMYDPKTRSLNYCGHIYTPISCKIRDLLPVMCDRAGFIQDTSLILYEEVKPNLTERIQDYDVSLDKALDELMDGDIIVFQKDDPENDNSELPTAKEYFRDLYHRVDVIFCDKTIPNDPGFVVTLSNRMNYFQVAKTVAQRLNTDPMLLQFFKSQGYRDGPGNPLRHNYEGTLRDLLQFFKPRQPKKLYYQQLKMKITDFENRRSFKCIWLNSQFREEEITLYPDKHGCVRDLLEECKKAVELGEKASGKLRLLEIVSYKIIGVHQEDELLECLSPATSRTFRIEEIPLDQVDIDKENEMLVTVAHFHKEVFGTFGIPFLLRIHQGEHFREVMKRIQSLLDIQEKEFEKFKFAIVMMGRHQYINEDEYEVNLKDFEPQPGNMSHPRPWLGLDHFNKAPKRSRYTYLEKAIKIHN

SMILES: COc1cccc2c(=O)n(CC3(O)CCN(C(=O)CC(C)c4ccccc4)CC3)cnc12 (stereo unspecified) [US10836741, Example I-6]
- IC50: < 0.2 µM
